Results from ChEMBL document CHEMBL1201862, “PubChem BioAssay data set” (2004).
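Method: 48-hour compound exposure of cells in 96-well plates, five concentrations, linear interpolation of endpoints. At the GI50, growth is halved.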 Activity calls are given as the source filed them. Cut-off read from the data, not from the text of the source: active = GI50 up to about 1.1 µM and inactive = higher.

Columns and labels:
Assay in all cases: DTP human tumour cell line panel, 48 h
SK-MEL-2 = tested on: SK-MEL-2
SF-539 = tested on: SF-539
NCI-H226 = tested on: NCI-H226
OVCAR-8 = tested on: OVCAR-8
OVCAR-3 = tested on: OVCAR-3
UO-31 = tested on: UO-31
NCI-H522 = tested on: NCI-H522
UACC-62 = tested on: UACC-62
NCI-H460 = tested on: NCI-H460
SN12C = tested on: SN12C
RPMI-8226 = tested on: RPMI-8226
SK-MEL-5 = tested on: SK-MEL-5
A498 = tested on: A498
HL-60 = tested on: HL-60
HT-29 = tested on: HT-29
OVCAR-4 = tested on: OVCAR-4

Measured: GI50

Clc1ccc(SC(/C=C/NNC2=NN=C(c3ccccc3)C(c3ccccc3)N2)c2ccccc2)cc1 (centres undefined)
inactive: SK-MEL-2 18.7 µM | SF-539 26.4 µM | NCI-H226 13.4 µM | OVCAR-8 28.2 µM | OVCAR-3 11.8 µM | UO-31 13.2 µM | NCI-H522 17.9 µM | UACC-62 27.6 µM | NCI-H460 26.2 µM | SN12C 29.4 µM | RPMI-8226 6.64 µM | SK-MEL-5 14.7 µM | A498 28.2 µM | HL-60 14.6 µM | HT-29 15.1 µM | OVCAR-4 17.9 µM

COc1cc(/C=C(\NC(=O)c2ccccc2)c2nc3ccc4c(c3[nH]2)C(=O)c2ccccc2C4=O)cc(OC)c1OC
inactive: SK-MEL-2 50.5 µM | SF-539 20.1 µM | NCI-H226 > 100 µM | OVCAR-8 41.6 µM | OVCAR-3 38.1 µM | UO-31 2.36 µM | NCI-H522 7.24 µM | UACC-62 38.1 µM | SN12C 32.5 µM | RPMI-8226 2.92 µM | SK-MEL-5 35 µM | A498 13.1 µM | HT-29 > 100 µM | OVCAR-4 69.3 µM

N#Cc1ccc(C2SCc3nc4ccccc4n32)cc1 (centres undefined)
inactive: SK-MEL-2 > 100 µM | SF-539 84.7 µM | OVCAR-8 76.9 µM | OVCAR-3 > 100 µM | UO-31 15.2 µM | NCI-H522 12.3 µM | UACC-62 50.7 µM | NCI-H460 > 100 µM | SN12C 75 µM | RPMI-8226 49.8 µM | SK-MEL-5 32.7 µM | A498 58.7 µM | HL-60 31.3 µM | OVCAR-4 83.2 µM

C/C(=N\NC(=O)CC(=O)N(C(=O)c1ccc(Cl)cc1)c1ccc(C)cc1)c1ccccc1O
inactive: SK-MEL-2 > 100 µM | SF-539 43.4 µM | NCI-H226 77.6 µM | OVCAR-8 18.7 µM | OVCAR-3 14 µM | UO-31 4.82 µM | NCI-H522 36.6 µM | UACC-62 > 100 µM | NCI-H460 21.4 µM | SN12C > 100 µM | RPMI-8226 > 100 µM | SK-MEL-5 > 100 µM | A498 73.6 µM | HT-29 48.1 µM | OVCAR-4 1.67 µM

O=C(NO)c1ccc([N+](=O)[O-])cc1
inactive: SK-MEL-2 32.1 µM | SF-539 24.5 µM | NCI-H226 39.5 µM | OVCAR-8 25.2 µM | OVCAR-3 44.7 µM | UO-31 24.8 µM | NCI-H522 21 µM | UACC-62 19.7 µM | NCI-H460 50.2 µM | SN12C 94.2 µM | RPMI-8226 27.2 µM | SK-MEL-5 70.3 µM | A498 21.9 µM | HL-60 20.7 µM | HT-29 48 µM
